Marks after values point to notes of the source that are not given here.
Key:
Type in all cases: in vivo
[1] = tested on: lettuce aphid Nasonovia ribis-nigri; assay: 4-way olfactometer behavioural assay with alate lettuce aphids; settings: 1 μg in hexane on filter paper, 10 min, P<0.05
Method: Behavioural assays were done in a Perspex™ olfactometer similar to that described in J. Entomol. Scand. 1, 63-73 (1970) (Pettersson), with a weak airstream directed towards the centre from each of 4 side arms. The test compound (1 μg) in hexane (10 μl) was placed on filter paper (Whatman No. 1) at the end of one of the side arms, with hexane alone used as a control in the other arms. One alate virginopara of N. ribis-nigri was placed in the centre of the arena and its movements observed over 10 min. The apparatus, maintained at 24° C., was lit from above by fluorescent tubing and was rotated 90° every 2.5 min to avoid any directional bias. The experiment was replicated 6 times and results analysed by Student's t-test.

pollen beetles = assay: Field-trapping experiments with yellow bowl traps against pollen beetles
Method: Field-trapping experiments were also conducted using cis-jasmone against pollen beetles. Attractive yellow bowl traps, at 1 m height and 10 m spacing, were placed in a Latin square design (one row of the Latin square=one replicate; traps are re-randomized to the next row of the square when a mean of 10 beetles are caught per trap). Catches in an unbaited bowl were compared with those bowls baited with cis-jasmone released at two different rates. Analysis was by ANOVA, on transformed total catch data. The transformation used was x=log10(y+1), where x and y are the transformed and untransformed data, respectively. Transformed means were compared using the LSD (least […] difference) test and transformed back to give the results as set out in Table 1.
P<0.05. Numbers in brackets are the percent reduction in trap catch compared with the unbaited trap.

[2] = tested on: aphid parasitoid Aphidius ervi; assay: Wind tunnel single choice test of A. ervi with synthetic compounds on filter paper; settings: 10 μg on filter paper, hexane control 26.7
Description: Since semiochemicals acting as repellents or inhibitors of host attractancy for herbivorous insects are often involved in predation or parasitism, the activity of cis-jasmone was also investigated at higher trophic levels. […] These experiments indicate a behavioural role for cis-jasmone in influencing interactions between plants, herbivorous insects and their predators and parasitoids. Naive female A. ervi were flown in a wind tunnel, as described in J. Chem. Ecol. 16, 381-396 (1996) (Poppy et al.). The parasitoids were released 25 cm downwind (single choice tests) or 40 cm downwind (dual choice test) of the target, which was either a plant or a synthetic compound (10 μg in 10 μl hexane) placed on a 2×1 cm strip of filter paper (Whatman No. 1) surrounded by a ring of green crêpe paper. The proportions of parasitoids responding with an oriented flight to the synthetic chemicals were calculated each day on 3 separate days. These values were then subjected to a logit transformation to normalize the data before being analysed by ANOVA followed by Tukey post-hoc tests. The number of parasitoids orienting upwind to the single plant target were recorded and subjected to a χ^2 contingency test (Pearson method on Genstat—see Genstat 5 Committee. Genstat 5 Reference Manual, Release 3 (Clarendon Press, Oxford, 1993)) to determine whether an orienting response was linked to the type of plant treatment. The numbers orienting to each plant in the dual choice test were analysed by a χ^2 to determine whether one plant was more attractive than the other.

[3] = tested on: aphid parasitoid Aphidius ervi; assay: Wind tunnel responses of A. ervi to V. faba plants exposed to the compound
Method: A possible role for the compound as an airborne plant signal was investigated using the broad bean, V. faba (cv The Sutton). Plants were kept for 24 hours in clean air or in air incorporating cis-jasmone at 100 μg/l; subsequently, samples of volatiles released by the plants were obtained by entrainment over 4 periods of 48 hours, i.e. up to 192 hours after the end of the treatment. The cis-jasmone itself was undetectable after 48 hours. […] There was also, from some replicates, enhancement of (E,E)-α-farnesene, (−)-β-caryophyllene and (E)-4,8-dimethyl-1,3,7-nonatriene. These compounds have all been implicated in herbivorous insect-induced production and increased parasitoid foraging. The nonatriene can also be produced innately by plants imitating damage for defence against herbivores and which are thus attractive to parasitoids.
Naive female A. ervi were flown in a wind tunnel, as described in J. Chem. Ecol. 16, 381-396 (1996) (Poppy et al.). The parasitoids were released 25 cm downwind (single choice tests) or 40 cm downwind (dual choice test) of the target, which was either a plant or a synthetic compound (10 μg in 10 μl hexane) placed on a 2×1 cm strip of filter paper (Whatman No. 1) surrounded by a ring of green crêpe paper. The proportions of parasitoids responding with an oriented flight to the synthetic chemicals were calculated each day on 3 separate days. These values were then subjected to a logit transformation to normalize the data before being analysed by ANOVA followed by Tukey post-hoc tests. The number of parasitoids orienting upwind to the single plant target were recorded and subjected to a χ^2 contingency test (Pearson method on Genstat—see Genstat 5 Committee. Genstat 5 Reference Manual, Release 3 (Clarendon Press, Oxford, 1993)) to determine whether an orienting response was linked to the type of plant treatment. The numbers orienting to each plant in the dual choice test were analysed by a χ^2 to determine whether one plant was more attractive than the other. […]

CC/C=C\CC1=C(C)CCC1=O [cis-jasmone]
mean number of entries into the treated arm ([1]; 6 replicates, control arms 4.3±0.58): 2.0±0.58
mean time spent in the treated arm ([1]; control arms 2.1±0.36 minutes): 0.5 ± 0.16 min
percent reduction in trap catch compared with the unbaited trap (pollen beetles; Analysis A, 2.2 mg/day): (44%)
Back-transformed mean catch per replicate (pollen beetles; Analysis A, 2.2 mg/day, unbaited trap 127.3): 70.9^b
percent reduction in trap catch compared with the unbaited trap (pollen beetles; Analysis A, 25 mg/day): (59%)
Back-transformed mean catch per replicate (pollen beetles; Analysis A, 25 mg/day, unbaited trap 127.3): 51.7^c
percent reduction in trap catch compared with the unbaited trap (pollen beetles; Experiment A, 2.2 mg/day): (21%)
Back-transformed mean catch per replicate (pollen beetles; Experiment A, 2.2 mg/day, unbaited trap 48.3): 38.2^ab
percent reduction in trap catch compared with the unbaited trap (pollen beetles; Experiment A, 25 mg/day): (35%)
Back-transformed mean catch per replicate (pollen beetles; Experiment A, 25 mg/day, unbaited trap 48.3): 31.4^b
percent reduction in trap catch compared with the unbaited trap (pollen beetles; Experiment B, 2.2 mg/day): (60%)
Back-transformed mean catch per replicate (pollen beetles; Experiment B, 2.2 mg/day, unbaited trap 333.1): 130.7^bc
percent reduction in trap catch compared with the unbaited trap (pollen beetles; Experiment B, 25 mg/day): (75%)
Back-transformed mean catch per replicate (pollen beetles; Experiment B, 25 mg/day, unbaited trap 333.1): 84.6^c
% showing oriented flight [2]: 53.1^a %
% showing oriented flight ([3]; V. faba plants 48 hr after exposure (100 μg/l in air), single choice test, hexane control 20, P<0.01): 44%
parasitoids oriented towards the treated plant compared to the control ([3]; dual choice test of treated or untreated plants): over 3 times
% oriented to treated plant ([3]; dual choice test, treated plant versus control plant, 48 hr after exposure (100 μg/l in air), control plant 10, P<0.05): 32%

— US8221736B2, “Semiochemical” (Rothamsted Research Limited, priority 1999, dated 2012)
